Source: ChEMBL document CHEMBL5154804, “Species-Selective Targeting of Fungal Hsp90: Design, Synthesis, and Evaluation of Novel 4,5-Diarylisoxazole Derivatives for the Combination Treatment of Azole-Resistant Candidiasis” (J Med Chem, 2022)
Converted amounts (≈) assume the structure as drawn. The source made the active and inactive calls. The rule behind the calls is not given here.

Legend:
Candida albicans [1] = experiment: Synergistic antifungal activity against fluconazole-resistant Candida albicans 901 assessed as inhibition of fungal growth in presence of fluconazole by checker board microdilution assay; assay type: functional
Candida albicans [2] = experiment: Synergistic antifungal activity against fluconazole-resistant Candida albicans 904 assessed as inhibition of fungal growth in presence of fluconazole by checker board microdilution assay; assay type: functional
Candida albicans [3] = experiment: Synergistic antifungal activity against fluconazole-resistant Candida albicans 632 assessed as inhibition of fungal growth in presence of fluconazole by checker board microdilution assay; assay type: functional
Candida albicans [4] = experiment: Synergistic antifungal activity against fluconazole-resistant Candida albicans 100 assessed as inhibition of fungal growth in presence of fluconazole by checker board microdilution assay; assay type: functional
Candida albicans [5] = experiment: Synergistic antifungal activity against fluconazole-resistant Candida albicans 103 assessed as inhibition of fungal growth in presence of fluconazole by checker board microdilution assay; assay type: functional
Candida albicans [6] = experiment: Synergistic antifungal activity against fluconazole-resistant Candida albicans 311 assessed as inhibition of fungal growth in presence of fluconazole by checker board microdilution assay; assay type: functional
Candida albicans [7] = experiment: Antifungal activity against fluconazole-resistant Candida albicans 901 assessed as inhibition of fungal growth by checker board microdilution assay; assay type: functional
Candida albicans [8] = experiment: Antifungal activity against fluconazole-resistant Candida albicans 904 assessed as inhibition of fungal growth by checker board microdilution assay; assay type: functional
Candida albicans [9] = experiment: Antifungal activity against fluconazole-resistant Candida albicans 632 assessed as inhibition of fungal growth by checker board microdilution assay; assay type: functional
Candida albicans [10] = experiment: Antifungal activity against fluconazole-resistant Candida albicans 100 assessed as inhibition of fungal growth by checker board microdilution assay; assay type: functional
Candida albicans [11] = experiment: Antifungal activity against fluconazole-resistant Candida albicans 103 assessed as inhibition of fungal growth by checker board microdilution assay; assay type: functional
Candida albicans [12] = experiment: Antifungal activity against fluconazole-resistant Candida albicans 311 assessed as inhibition of fungal growth by checker board microdilution assay; assay type: functional
Candida albicans [13] = experiment: Antibiofilm activity against Candida albicans 904 assessed as inhibition of […] metabolism within the biofilm after 24 hrs by XTT reduction assay; assay type: functional
Candida albicans [14] = experiment: Antibiofilm activity against Candida albicans 904 assessed as inhibition of […] metabolism within the biofilm after 48 hrs by XTT reduction assay; assay type: functional
Candida albicans [15] = experiment: Fungicidal activity against Candida albicans 904 assessed as colony forming at 4 times MIC incubated for 48 hrs by time-kill curve assay; assay type: functional
Candida albicans [16] = experiment: Reversal of fluconazole mediated azole resistant Candida albicans 904 assessed as upregulation of CDR1 expression at 32 ug/ml by RT-PCR; assay type: functional, organism-based; settings: dose 32.0 µg/ml
Candida albicans [17] = experiment: Reversal of fluconazole mediated azole resistant Candida albicans 904 assessed as upregulation of CDR2 expression at 32 ug/ml by RT-PCR; assay type: functional, organism-based; settings: dose 32.0 µg/ml
Candida albicans [18] = experiment: Synergetic antifungal activity against fluconazole-resistant Candida albicans 901 assessed as fractional inhibitory concentration index in presence of fluconazole by checker board microdilution assay; assay type: functional
Candida albicans [19] = experiment: Synergetic antifungal activity against fluconazole-resistant Candida albicans 904 assessed as fractional inhibitory concentration index in presence of fluconazole by checker board microdilution assay; assay type: functional
Candida albicans [20] = experiment: Synergetic antifungal activity against fluconazole-resistant Candida albicans 632 assessed as fractional inhibitory concentration index in presence of fluconazole by checker board microdilution assay; assay type: functional
Candida albicans [21] = experiment: Synergetic antifungal activity against fluconazole-resistant Candida albicans 100 assessed as fractional inhibitory concentration index in presence of fluconazole by checker board microdilution assay; assay type: functional
Candida albicans [22] = experiment: Synergetic antifungal activity against fluconazole-resistant Candida albicans 103 assessed as fractional inhibitory concentration index in presence of fluconazole by checker board microdilution assay; assay type: functional
Candida albicans [23] = experiment: Synergetic antifungal activity against fluconazole-resistant Candida albicans 311 assessed as fractional inhibitory concentration index in presence of fluconazole by checker board microdilution assay; assay type: functional
A549 = experiment: Cytotoxicity against human A549 cell assessed as inhibition of cell growth after 24 hrs by MTT assay; assay type: functional, cell-based; settings: A549, 24 h
MCF7 = experiment: Cytotoxicity against human MCF7 cell assessed as inhibition of cell growth after 24 hrs by MTT assay; assay type: functional, cell-based; settings: MCF7, 24 h
HepG2 = experiment: Cytotoxicity against human HepG2 cell assessed as inhibition of cell growth after 24 hrs by MTT assay; assay type: functional, cell-based; settings: HepG2, 24 h
[24] = Cytotoxicity against human THLE-2 cell assessed as inhibition of cell growth after 24 hrs by MTT assay; assay type: toxicity, cell-based; settings: THLE-2 cells
[25] = Cytotoxicity against human BEAS-2B cell assessed as inhibition of cell growth after 24 hrs by MTT assay; assay type: toxicity, cell-based; settings: BEAS-2B cells
[26] = Cytotoxicity against mouse NIH3T3 cell assessed as inhibition of cell growth after 24 hrs by MTT assay; assay type: toxicity, cell-based; settings: NIH3T3 cells
RAW264.7 = experiment: Cytotoxicity against mouse RAW264.7 cell assessed as inhibition of cell growth after 24 hrs by MTT assay; assay type: functional, cell-based; settings: RAW264.7, 24 h
[27] = Cytotoxicity against mouse BV-2 cell assessed as inhibition of cell growth after 24 hrs by MTT assay; assay type: toxicity, cell-based; settings: BV-2 cells
[28] = Metabolic stability in human liver microsomes assessed as half life in presence of NADPH cofactor under shaking condition for 10 mins measured after 5 to 60 mins by LC-MS/MS analysis; assay type: ADME, Microsome; settings: time 15-70 min
[29] = Metabolic stability in human liver microsomes assessed as microsomal intrinsic clearance in presence of NADPH cofactor under shaking condition for 10 mins measured after 5 to 60 mins by LC-MS/MS analysis; assay type: ADME, Microsome; settings: time 15-70 min
[30] = Metabolic stability in human liver microsomes assessed as intrinsic clearance in presence of NADPH cofactor under shaking condition for 10 mins measured after 5 to 60 mins by LC-MS/MS analysis; assay type: ADME, Microsome; settings: time 15-70 min
[31] = Metabolic stability in human liver microsomes assessed as compound remaining in presence of NADPH cofactor under shaking condition for 10 mins measured after 60 mins by LC-MS/MS analysis; assay type: ADME, Microsome; settings: time 70 min, read-out: Stability
[32] = Stability in human plasma assessed as compound remaining at 120 mins by LC-MS/MS analysis; assay type: ADME, cell-free; settings: read-out: Stability
[33] = Stability in human plasma assessed as half life at 120 mins by LC-MS/MS analysis; assay type: ADME, cell-free
CYP1A2 = biological target: T1, CYP1A2 (Homo sapiens, UniProt P05177); experiment: Inhibition of CYP1A2 in human liver microsome at 10 uM using phenacetin as substrate incubated for 10 mins in presence of NADPH cofactor by LC-MS/MS analysis; assay type: ADME; settings: liver microsomes, probe phenacetin
T1 sequence (P05177 whole entry): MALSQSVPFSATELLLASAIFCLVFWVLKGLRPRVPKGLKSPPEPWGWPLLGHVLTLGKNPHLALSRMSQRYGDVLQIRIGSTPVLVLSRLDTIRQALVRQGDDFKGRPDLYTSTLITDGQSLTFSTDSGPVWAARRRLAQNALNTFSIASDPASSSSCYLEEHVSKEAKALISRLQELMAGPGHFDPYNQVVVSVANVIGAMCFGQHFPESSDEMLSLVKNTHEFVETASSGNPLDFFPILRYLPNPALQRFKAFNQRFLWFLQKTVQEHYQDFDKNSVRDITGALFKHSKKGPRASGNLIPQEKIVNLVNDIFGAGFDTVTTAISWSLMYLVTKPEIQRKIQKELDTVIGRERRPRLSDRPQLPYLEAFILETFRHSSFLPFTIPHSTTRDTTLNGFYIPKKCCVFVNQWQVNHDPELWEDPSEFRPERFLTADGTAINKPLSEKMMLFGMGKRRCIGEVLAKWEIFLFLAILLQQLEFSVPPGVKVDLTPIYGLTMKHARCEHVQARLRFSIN

CYP2C9 = CYP2C9 (Homo sapiens, UniProt P11712); experiment: Inhibition of CYP2C9 in human liver microsome at 10 uM using diclofenac as substrate incubated for 10 mins in presence of NADPH cofactor by LC-MS/MS analysis; assay type: ADME; settings: liver microsomes, probe diclofenac
CYP2C19 = CYP2C19 (Homo sapiens, UniProt P33261); experiment: Inhibition of CYP2C19 in human liver microsome at 10 uM using S-mephenytoin as substrate incubated for 10 mins in presence of NADPH cofactor by LC-MS/MS analysis; assay type: ADME; settings: liver microsomes, probe S-mephenytoin
CYP2D6 = CYP2D6 (Homo sapiens, UniProt P10635); experiment: Inhibition of CYPD6 in human liver microsome at 10 uM using dextromethorphan as substrate incubated for 10 mins in presence of NADPH cofactor by LC-MS/MS analysis; assay type: ADME; settings: liver microsomes, probe dextromethorphan
CYP3A4 = CYP3A4 (Homo sapiens, UniProt P08684); experiment: Inhibition of CYP3A4 in human liver microsome at 10 uM using midazolam as substrate incubated for 10 mins in presence of NADPH cofactor by LC-MS/MS analysis; assay type: ADME; settings: liver microsomes, probe midazolam
Candida albicans [34] = experiment: Potentiation of fluconazole-induced antifungal activity against fluconazole-resistant Candida albicans 901 assessed as fluconazole MIC by checker board microdilution assay; assay type: functional
Candida albicans [35] = experiment: Potentiation of fluconazole-induced antifungal activity against fluconazole-resistant Candida albicans 904 assessed as fluconazole MIC by checker board microdilution assay; assay type: functional
Candida albicans [36] = experiment: Potentiation of fluconazole-induced antifungal activity against fluconazole-resistant Candida albicans 632 assessed as fluconazole MIC by checker board microdilution assay; assay type: functional
Candida albicans [37] = experiment: Potentiation of fluconazole-induced antifungal activity against fluconazole-resistant Candida albicans 100 assessed as fluconazole MIC by checker board microdilution assay; assay type: functional
Candida albicans [38] = experiment: Potentiation of fluconazole-induced antifungal activity against fluconazole-resistant Candida albicans 103 assessed as fluconazole MIC by checker board microdilution assay; assay type: functional
Candida albicans [39] = experiment: Potentiation of fluconazole-induced antifungal activity against fluconazole-resistant Candida albicans 311 assessed as fluconazole MIC by checker board microdilution assay; assay type: functional

Chain of CYP2C19 (P33261 whole entry): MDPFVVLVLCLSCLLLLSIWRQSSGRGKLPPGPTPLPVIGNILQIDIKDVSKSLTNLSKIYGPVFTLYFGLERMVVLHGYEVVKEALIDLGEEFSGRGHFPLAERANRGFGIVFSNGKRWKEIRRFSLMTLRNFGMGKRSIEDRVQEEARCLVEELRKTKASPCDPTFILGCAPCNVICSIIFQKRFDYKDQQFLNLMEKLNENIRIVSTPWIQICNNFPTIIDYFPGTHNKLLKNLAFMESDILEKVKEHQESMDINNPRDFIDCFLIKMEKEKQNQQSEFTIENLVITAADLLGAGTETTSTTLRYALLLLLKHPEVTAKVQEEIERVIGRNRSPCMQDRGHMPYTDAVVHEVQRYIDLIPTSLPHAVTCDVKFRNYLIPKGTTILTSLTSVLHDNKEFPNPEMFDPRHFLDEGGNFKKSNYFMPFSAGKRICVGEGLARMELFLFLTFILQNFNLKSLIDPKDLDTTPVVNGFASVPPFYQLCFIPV
Chain of CYP2D6 (P10635 whole entry): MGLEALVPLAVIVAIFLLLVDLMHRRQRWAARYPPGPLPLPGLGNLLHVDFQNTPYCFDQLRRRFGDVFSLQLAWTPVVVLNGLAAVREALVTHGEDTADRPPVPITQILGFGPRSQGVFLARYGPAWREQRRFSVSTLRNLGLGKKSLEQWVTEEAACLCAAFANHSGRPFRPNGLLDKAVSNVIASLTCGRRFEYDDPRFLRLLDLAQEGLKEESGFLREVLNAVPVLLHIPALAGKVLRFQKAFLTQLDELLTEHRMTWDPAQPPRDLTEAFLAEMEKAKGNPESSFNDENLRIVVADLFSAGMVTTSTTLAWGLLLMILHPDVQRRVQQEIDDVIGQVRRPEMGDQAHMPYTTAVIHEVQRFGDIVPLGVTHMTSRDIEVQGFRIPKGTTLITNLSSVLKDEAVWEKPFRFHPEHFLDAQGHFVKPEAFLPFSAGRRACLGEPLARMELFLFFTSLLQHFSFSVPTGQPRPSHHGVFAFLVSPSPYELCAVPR
Chain of CYP3A4 (P08684 whole entry): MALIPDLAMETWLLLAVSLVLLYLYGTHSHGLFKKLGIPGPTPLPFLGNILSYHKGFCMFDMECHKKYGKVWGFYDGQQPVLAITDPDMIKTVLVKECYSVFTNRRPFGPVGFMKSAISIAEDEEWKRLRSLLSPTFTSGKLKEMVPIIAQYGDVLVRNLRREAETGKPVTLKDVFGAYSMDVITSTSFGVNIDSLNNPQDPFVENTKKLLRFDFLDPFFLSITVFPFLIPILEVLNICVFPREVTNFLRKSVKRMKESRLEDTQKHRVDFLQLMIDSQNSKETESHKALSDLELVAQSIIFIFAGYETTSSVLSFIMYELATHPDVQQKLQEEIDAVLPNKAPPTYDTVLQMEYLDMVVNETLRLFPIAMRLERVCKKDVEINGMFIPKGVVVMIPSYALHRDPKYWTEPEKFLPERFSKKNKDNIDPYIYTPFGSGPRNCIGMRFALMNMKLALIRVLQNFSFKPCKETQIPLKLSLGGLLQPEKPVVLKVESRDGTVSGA
Chain of CYP2C9 (P11712 whole entry): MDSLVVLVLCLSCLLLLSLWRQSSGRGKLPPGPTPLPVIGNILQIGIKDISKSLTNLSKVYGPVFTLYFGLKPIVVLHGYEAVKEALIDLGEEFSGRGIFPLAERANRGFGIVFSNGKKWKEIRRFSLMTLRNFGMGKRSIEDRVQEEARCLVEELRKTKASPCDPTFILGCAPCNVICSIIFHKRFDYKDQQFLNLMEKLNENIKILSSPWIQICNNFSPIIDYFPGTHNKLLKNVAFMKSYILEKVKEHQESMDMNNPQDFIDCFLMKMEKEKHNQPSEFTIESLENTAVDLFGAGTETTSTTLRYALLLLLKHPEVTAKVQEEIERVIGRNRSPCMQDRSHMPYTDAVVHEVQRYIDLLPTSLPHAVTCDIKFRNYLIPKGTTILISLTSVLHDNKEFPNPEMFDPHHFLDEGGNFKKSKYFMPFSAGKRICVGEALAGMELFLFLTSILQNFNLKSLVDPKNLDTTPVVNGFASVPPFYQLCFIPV

OC(Cn1cncn1)(Cn1cncn1)c1ccc(F)cc1F [FLUCONAZOLE]
MIC80 (Candida albicans [1]): > 64 µg/mL | MIC80 (Candida albicans [2]): > 64 µg/mL | MIC80 (Candida albicans [3]): > 64 µg/mL | MIC80 (Candida albicans [4]): > 64 µg/mL | MIC80 (Candida albicans [5]): > 64 µg/mL | MIC80 (Candida albicans [6]): > 64 µg/mL | MIC80 (Candida albicans [7]): > 64 µg/mL | MIC80 (Candida albicans [8]): > 64 µg/mL | MIC80 (Candida albicans [9]): > 64 µg/mL | MIC80 (Candida albicans [10]): > 64 µg/mL | MIC80 (Candida albicans [11]): 64 µg/mL | MIC80 (Candida albicans [12]): 64 µg/mL | MIC50 (Candida albicans [13]): 32 µg/mL (≈ 104 µM) | MIC50 (Candida albicans [14]): > 64 µg/mL | MFC (Candida albicans [15]): > 64 µg/mL | Activity (Candida albicans [16]): Active | Activity (Candida albicans [17]): Active

CNC(=O)c1noc(-c2cc(-c3ccc(C)cc3)c(O)cc2O)c1-c1ccc(CN2CCCCC2)cc1
MIC80 (Candida albicans [1]): 0.25 µg/mL | MIC80 (Candida albicans [2]): 0.125 µg/mL | MIC80 (Candida albicans [3]): 2 µg/mL | MIC80 (Candida albicans [4]): 1 µg/mL | MIC80 (Candida albicans [5]): 0.5 µg/mL | MIC80 (Candida albicans [6]): 0.5 µg/mL | MIC80 (Candida albicans [7]): > 64 µg/mL | MIC80 (Candida albicans [8]): > 64 µg/mL | MIC80 (Candida albicans [9]): > 64 µg/mL | MIC80 (Candida albicans [10]): > 64 µg/mL | MIC80 (Candida albicans [11]): > 64 µg/mL | MIC80 (Candida albicans [12]): > 64 µg/mL | fractional inhibitory concentration index (FICI) (Candida albicans [18]): 0.02 | fractional inhibitory concentration index (FICI) (Candida albicans [19]): 0.01 | fractional inhibitory concentration index (FICI) (Candida albicans [20]): 0.062 | fractional inhibitory concentration index (FICI) (Candida albicans [21]): 0.047 | fractional inhibitory concentration index (FICI) (Candida albicans [22]): 0.039 | fractional inhibitory concentration index (FICI) (Candida albicans [23]): 0.023 | IC50 (A549): 10.8 µM | IC50 (MCF7): 15.6 µM | IC50 (HepG2): 24.9 µM | IC50 at 24 h [24]: 2.79 µM | IC50 at 24 h [25]: 11.6 µM | IC50 at 24 h [26]: 0.46 µM | IC50 (RAW264.7): 3.65 µM | IC50 at 24 h [27]: 3.04 µM | half-life [28]: 0.722 h | CLint [29]: 32 µL/min/mg | CLint [30]: 28.8 mL/min/kg | remaining at 1.167 h [31]: 38.3% | remaining at 2 h [32]: 55.2% | half-life [33]: 2.18 h | inhibition at 10 min, 10 µM (CYP1A2): 17.7% | inhibition at 10 min, 10 µM (CYP2C9): 44.6% | inhibition at 10 min, 10 µM (CYP2C19): 48.5% | inhibition at 10 min, 10 µM (CYP2D6): 24.8% | inhibition at 10 min, 10 µM (CYP3A4): 17.7% | MIC80 (Candida albicans [34]): 1 µg/mL | MIC80 (Candida albicans [35]): 0.5 µg/mL | MIC80 (Candida albicans [36]): 2 µg/mL | MIC80 (Candida albicans [37]): 2 µg/mL | MIC80 (Candida albicans [38]): 2 µg/mL | MIC80 (Candida albicans [39]): 1 µg/mL
